# Key:
# Assay type in all cases: in vivo
# [1] = test system: female mosquitoes (Aedes aegypti); experiment: Mosquitoes feeding test (Plexiglas module, treated membrane over dyed sucrose/ATP solution); conditions: for Feeding Relative To Control: control = 1.00, lower = more repellent; for contact mosquito repellent activity (feeding tests, FIGS. 1 and 3), in words: feeding relative to control
# Description: The test was conducted at 0900-2100 hours in a walk-in incubator (26° C., 63-80% RH) illuminated by fluorescent lights. Mosquitoes were tested in a two-piece Plexiglas module designed to assess their response to feeding deterrents. The bottom piece of the module was 40×7×4-cm hollow platform supporting six circular wells (diameter=3.8 cm, depth=6 mm). Water (40° C.) flowed through the central cavity of the platform at a rate of 215 ml/min. The top piece of the module consisted of six 4.5×4.0×5.0 cm chambers, the floors of which were fitted with a sliding door positioned over a circular opening 3.5 cm in diameter. Mosquitoes were introduced through an aperture 1 cm in diameter on the front wall of the chambers. For each test, five female mosquitoes (Aedes aegypti) were aspirated into each of five chambers of the top module piece and the apertures were plugged with corks wrapped in plastic film. The wells on the bottom piece of the module were filled with 7 ml of 10% sucrose solution containing ATP (2.9 mg/ml). To each well, 75 μl of green dye (McCormick Food, Hunt Valley, Md.) were added so that those mosquitoes imbibing the sugar solution could be identified when crushed at the end of the tests. Each membrane received 50 ul of acetone or experimental compound solution, applied to 9.6 cm^2 circular area on 0.1 mm-thick membranes made of nylon mesh in a silicone matrix. The membranes were then placed over each well in contact with the sugar solution.
# The circular openings on the floor of each chamber of the top piece of the module were aligned with each membrane-covered well of the bottom piece. The sliding floors of the chambers were then opened allowing mosquitoes access to the membranes. The number of mosquitoes landing on the membranes, and those flying within the apparatus, were recorded each minute for five minutes. After five minutes, any mosquitoes remaining on the membranes were removed with a metal wire, and the door of the floor of each chamber was closed. The top piece of the module was then placed into a freezer for 20 minutes. In the test designed to assess feeding, mosquitoes were removed from the frozen module, crushed on white paper towels, and examined for the presence of green dye to indicate that feeding had occurred. The proportions of mosquitoes feeding per trial were analyzed using a standard generalized linear model with a logit link. Landing and flying scores are repeated measures; five reading were obtained for groups of five mosquitoes. Thus, to maintain independence among the data, the five readings were summed, and then the sums divided by 25 (the maximum score in each category) to create proportions of mosquitoes landing and flying. The proportions were then transferred using the standard variance stabilizing transformation for proportions (sin^−1 √y, where y is the proportion), and analyzed using ANOVA (Analysis of Variables)
# In Table 1, weight percent (wt %) refers to the weight of the deterring/repelling/inhibiting compound, or combination of compounds, in the composition used in the tests. […] The weight ratio of the compounds in the combination of compounds is given in parentheses in the “Compound(s)” column of Table 1.
# mosquitoes = experiment: Spatial inhibition of mosquitoes, outdoor Mosquito Magnet Liberty Plus trap catch; conditions: for Percent Caught Relative To Control: control trap = 100% catch, lower = more inhibition; for percent mosquitoes caught relative to the control (relative catch): two grams of test compound on absorbent material in CO2 and r-octenol stream of trap, 2-5 days, FIG. 5
# Description: Two grams of test compound was absorbed onto pieces of absorbent material. These pieces of absorbent material (fragrance release material from Rhopore Inc.) containing absorbed test compound were then placed in a stream of CO2 and r-octenol being released from an American Biophysics Mosquito Magnet Liberty Plus mosquito trap designed to attract mosquitoes. The test were rotated over a period of 2-5 days in such a manner that both control (trap without test compound) and test compound were tested an equal number of times in each trap employed. The number of mosquitoes caught in the traps with test compounds was compared to the number of mosquitoes caught in the trap with no test compound material present. […] Thus, a lowered percentage is indicative of the increasing ability of the test compounds to inhibit the ability of the mosquitoes sense the target. […] In Table 3, weight percent (wt %) refers to the weight of the deterring/repelling/inhibiting compound, or combination of compounds, in the composition used in the tests. In the “Percent Caught Relative to Control” column in Table 3, a lower percentage is indicative of the increasing ability of the test compounds to inhibit the ability of the mosquitoes sense the target. The weight ratio of the compounds in the combination of compounds is given in parentheses in the “Compound(s)” column of Table 3.
# [2] = test system: female biting midges (Culicoides impunctatus); experiment: Biting midges flying test (Plexiglas module); conditions: control = 1, higher = more inhibitor activity
# Description: The following tests are employed to illustrate the efficacy of the compounds of this disclosure to effectively act as biting midge deterrents, repellents or as spatial inhibitors for biting midges. […] Biting midges are tested in a two-piece Plexiglas module designed to assess their response to feeding deterrents. […] Water (40° C.) flows through the central cavity of the platform at a rate of 215 ml/min. The top piece of the module consists of six 4.5×4.0×5.0 cm chambers, the floors of which are fitted with a sliding door positioned over a circular opening 3.5 cm in diameter. Biting midges are introduced through an aperture 1 cm in diameter on the front wall of the chambers. For each test, five female biting midges (Culicoides impunctatus) are aspirated into each of five chambers of the top module piece and the apertures are plugged with corks wrapped in plastic film. […] To each well, 77.5 μl of green dye (McCormick Food, Hunt Valley, Md.) are added so that those biting midges imbibing the sugar solution can be identified when crushed at the end of the tests. Each membrane receives 50 μl of acetone or experimental compound solution, applied to 9.6 cm^2 circular area on 0.1 mm-thick membranes made of nylon mesh in a silicone matrix. The membranes are then placed over each well in contact with the sugar solution. The circular openings on the floor of each chamber of the top piece of the module are aligned with each membrane-covered well of the bottom piece. The sliding floors of the chambers are then opened allowing biting midges access to the membranes. The number of biting midges landing on the membranes, and those flying within the apparatus, are recorded each minute for five minutes. After five minutes, any biting midges remaining on the membranes are removed with a metal wire, and the door of the floor of each chamber is closed. The top piece of the module is then placed into a freezer for 20 minutes. In the test designed to assess feeding, biting midges are removed from the frozen module, crushed on white paper towels, and examined for the presence of green dye to indicate that feeding had occurred. The proportions of biting midges feeding per trial are analyzed using a standard generalized linear model with a logit link. Landing and flying scores are repeated measures; five readings are obtained for groups of five biting midges. Thus, to maintain independence among the data, the five readings are summed, and then the sums divided by 25 (the maximum score in each category) to create proportions of biting midges landing and flying. The proportions are then transferred using the standard variance stabilizing transformation for proportions (sin^−1 √y, where y is the proportion), and analyzed using ANOVA (Analysis of Variables). In Table 5, weight percent (wt %) refers to the weight of the deterring/repelling/inhibiting compound, or combination of compounds, in the composition used in the tests. […] The weight ratio of the compounds in the combination of compounds is given in parentheses in the “Compound(s)” column of Table 5.
# [3] = 90 wt % compound(s) in composition
# [4] = 77.5 wt % compound(s) in composition
# [5] = 87.5 wt % compound(s) in composition
# [6] = 95 wt % compound(s) in composition
# [7] = 80 wt % compound(s) in composition
# [8] = 82.5 wt % compound(s) in composition
# [9] = 85 wt % compound(s) in composition
# [10] = 92.5 wt % compound(s) in composition
molecule,measurement,setting,value
CC1=CCC(C(C)(C)O)CC1 (stereo not drawn) [α-terpineol],Feeding Relative To Control,[1]; [3],0.80
same,"contact mosquito repellent activity (feeding tests, FIGS. 1 and 3), in words",[1],especially effective as contact mosquito repellents
same,Percent Caught Relative To Control,mosquitoes; [3],18%
same,Flying Relative To Control,[2]; [3],1.5
C=C(C)[C@@H]1CC=C(C)[C@@H](O)C1 (relative stereo) [trans-Carveol],Feeding Relative To Control,[1]; [4],0.64
same,Percent Caught Relative To Control,mosquitoes; [4],22%
same,Flying Relative To Control,[2]; [4],1.5
(+) Limonene oxide,Feeding Relative To Control,[1]; [5],0.78
same,Percent Caught Relative To Control,mosquitoes; [5],18%
same,Flying Relative To Control,[2]; [5],0.95
C=CC(C)(CCC=C(C)C)OC(C)=O (stereo not drawn) [Linaloyl acetate],Feeding Relative To Control,[1]; [6],0.74
same,"contact mosquito repellent activity (feeding tests, FIGS. 1 and 3), in words",[1],especially effective as contact mosquito repellents
same,Percent Caught Relative To Control,mosquitoes; [6],15%
same,Flying Relative To Control,[2]; [6],1.2
CC1=CCC(O)(C(C)C)CC1 (stereo not drawn) [Terpinen-4-ol],Feeding Relative To Control,[1]; [3],0.74
same,Percent Caught Relative To Control,mosquitoes; [3],20%
same,percent mosquitoes caught relative to the control (relative catch),mosquitoes,about 38%
same,Flying Relative To Control,[2]; [3],1.6
CC(C)=CCCC(C)CCO (stereo not drawn) [Citronellol],Feeding Relative To Control,[1]; [5],0.62
same,Percent Caught Relative To Control,mosquitoes; [5],12%
same,Flying Relative To Control,[2]; [5],1.5
"C=C[C@@](C)(O)CCC=C(C)C [d-Linalool, reference compound]",Feeding Relative To Control,[1]; [7],0.32
same,Percent Caught Relative To Control,mosquitoes; [7],6%
same,Flying Relative To Control,[2]; [7],1.35
l-Carvone,Feeding Relative To Control,[1]; [8],0.62
same,"contact mosquito repellent activity (feeding tests, FIGS. 1 and 3), in words",[1],especially effective as contact mosquito repellents
same,Percent Caught Relative To Control,mosquitoes; [8],10%
same,Flying Relative To Control,[2]; [8],1.65
CC(C)[C@@H]1CC[C@@H](C)C(=O)C1 [Tetrahydrocarvone],Feeding Relative To Control,[1]; [6],0.70
same,"contact mosquito repellent activity (feeding tests, FIGS. 1 and 3), in words",[1],especially effective as contact mosquito repellents
same,Percent Caught Relative To Control,mosquitoes; [6],25%
same,percent mosquitoes caught relative to the control (relative catch),mosquitoes,about 52%
same,Flying Relative To Control,[2]; [6],1.7
CC(C)=CCCC(C)=CC=O [Citral],Feeding Relative To Control,[1]; [8],0.60
same,"contact mosquito repellent activity (feeding tests, FIGS. 1 and 3), in words",[1],especially effective as contact mosquito repellents
same,Percent Caught Relative To Control,mosquitoes; [8],10%
same,Flying Relative To Control,[2]; [8],2.15
Cc1ccc(C(C)(C)O)cc1,Feeding Relative To Control,[1]; [7],0.72
same,"contact mosquito repellent activity (feeding tests, FIGS. 1 and 3), in words",[1],especially effective as contact mosquito repellents
same,Percent Caught Relative To Control,mosquitoes; [7],26%
same,percent mosquitoes caught relative to the control (relative catch),mosquitoes,about 34%
same,Flying Relative To Control,[2]; [7],1.2
CC(=O)OCCC(C)CCC=C(C)C (stereo not drawn) [Citronellyl acetate],Feeding Relative To Control,[1]; [7],0.65
same,Percent Caught Relative To Control,mosquitoes; [7],26%
same,Flying Relative To Control,[2]; [7],1.25
CC(=O)OC/C=C(/C)CCC=C(C)C [Neryl acetate],Feeding Relative To Control,[1]; [4],0.76
same,"contact mosquito repellent activity (feeding tests, FIGS. 1 and 3), in words",[1],especially effective as contact mosquito repellents
same,Percent Caught Relative To Control,mosquitoes; [4],22%
same,Flying Relative To Control,[2]; [4],2.5
CC(=O)OC/C=C(\C)CCC=C(C)C [Geranyl acetate],Feeding Relative To Control,[1]; [9],0.68
same,"contact mosquito repellent activity (feeding tests, FIGS. 1 and 3), in words",[1],especially effective as contact mosquito repellents
same,Percent Caught Relative To Control,mosquitoes; [9],30%
same,Flying Relative To Control,[2]; [9],1.5
C=C(C)[C@H]1CC=C(C)C(=O)C1 [d-Carvone],Feeding Relative To Control,[1]; [4],0.64
same,"contact mosquito repellent activity (feeding tests, FIGS. 1 and 3), in words",[1],especially effective as contact mosquito repellents
same,Percent Caught Relative To Control,mosquitoes; [4],12%
same,Flying Relative To Control,[2]; [4],1.55
"C=C(C)C1CCC2(C)OC2C1 (single isomer, unassigned; (-)) [(−) Limonene oxide]",Feeding Relative To Control,[1]; [10],0.76
same,Percent Caught Relative To Control,mosquitoes; [10],17%
same,Flying Relative To Control,[2]; [10],1.15
C=C(C)[C@@H]1CC=C(C)[C@H](O)C1 (relative stereo) [cis-Carveol],Feeding Relative To Control,[1]; [9],0.66
same,Percent Caught Relative To Control,mosquitoes; [9],23%
same,Flying Relative To Control,[2]; [9],1.25
